# Source: patent US8445437B2, “Treatment and prevention of cardiovascular disease using mast cell stabilizers” (The Brigham and Women's Hospital, Inc., priority 2006, dated 2013)
# System: LDLr-/- mice fed an atherogenic (Western) diet
# Assay: Diet-induced atherosclerosis in LDLr-/- mice with mast cell stabilization or activation
# Assay type: in vivo, mouse
# Settings: male LDLr-/- mice, 25 mg/kg/day daily
smiles,measurement,setting,value
"O=C(O)c1cc(=O)c2c(OCC(O)COc3cccc4oc(C(=O)O)cc(=O)c34)cccc2o1 [DSCG, disodium cromoglycate]",reduction of atherosclerotic lesion development,12 weeks,> 50%
same,reduction of atherosclerotic lesion development,26 weeks,> 50%
